Test results taken from patent US9924717B2, “Molecules having pesticidal utility, and intermediates, compositions, and processes, related thereto” (Dow AgroSciences LLC, priority 2016, dated 2018).
Like-named read-outs stand apart in the source and are kept apart here.

Key:
Type in all cases: in vivo
[1] = tested on: Cabbage Looper (Trichoplusia ni, TRIPNI) (CL); assay: Bioassays on Cabbage Looper (CL), 128-well diet tray assay; conditions: for pest or weed control at 50 µg/cm2: Table ABC rating, Cabbage Looper; for mortality at 5 µg/cm2: 168 h, diet tray, second instar larvae, five to seven days, read-out: Percent control (or mortality) CL
Description: (§1) Example A: Bioassays on Beet Armyworm (Spodoptera exigua, LAPHEG) (“BAW”), Corn Earworm (Helicoverpa zea, Helize) (“CEW”), and Cabbage Looper (Trichoplusia ni, TRIPNI) (“CL”)
(§2) Certain molecules disclosed in this document were tested against BAW, CEW, and CL using procedures described in the following examples. In the reporting of the results, the “BAW, CEW, & CL Rating Table” was used (See Table Section).
Bioassays on CL were conducted using a 128-well diet tray assay. one to five second instar CL larvae were placed in each well (3 mL) of the diet tray that had been previously filled with 1 mL of artificial diet to which 50 μg/cm^2 of the test molecule (dissolved in 50 μL of 90:10 acetone-water mixture) had been applied (to each of eight wells) and then allowed to dry. Trays were covered with a clear self-adhesive cover and held at 25° C., 14:10 light-dark for five to seven days. Percent mortality was recorded for the larvae in each well; activity in the eight wells was then averaged. The results are indicated in the table entitled “Table ABC: Biological Results” (See Table Section).
(§3) Bioassays on BAW and CL were conducted according to the procedures outlined in Example A: Bioassays on Beet Armyworm (“BAW”) and Cabbage Looper (“CL”) using the indicated concentrations.

[2] = tested on: Yellow Fever Mosquito (Aedes aegypti, AEDSAE) (YFM); assay: Bioassays on Yellow Fever Mosquito (YFM), 96-well plate larval assay; conditions: Table ABC rating
Description: Example C: Bioassays on Yellow Fever Mosquito (Aedes aegypti, AEDSAE) (“YFM”)
Certain molecules disclosed in this document were tested against YFM using procedures described in the following paragraph. In the reporting of the results, the “GPA & YFM Rating Table” was used (See Table Section).
Master plates containing 400 μg of a molecule dissolved in 100 μL of dimethyl sulfoxide (DMSO) (equivalent to a 4000 ppm solution) are used. A master plate of assembled molecules contains 15 μL per well. To this plate, 135 μL of a 90:10 water:acetone mixture is added to each well. A robot (Biomek® NXP Laboratory Automation Workstation) is programmed to dispense 15 μL aspirations from the master plate into an empty 96-well shallow plate (“daughter” plate). There are 6 reps (“daughter” plates) created per master. The created daughter plates are then immediately infested with YFM larvae.
The day before plates are to be treated, mosquito eggs are placed in Millipore water containing liver powder to begin hatching (4 g. into 400 mL). After the daughter plates are created using the robot, they are infested with 220 μL of the liver powder/larval mosquito mixture (about 1 day-old larvae). After plates are infested with mosquito larvae, a non-evaporative lid is used to cover the plate to reduce drying. Plates are held at room temperature for 3 days prior to grading. After 3 days, each well is observed and scored based on mortality. The results are indicated in the table entitled “Table ABC: Biological Results” (See Table Section).

[3] = tested on: Beet Armyworm (Spodoptera exigua, LAPHEG) (BAW); assay: Bioassays on Beet Armyworm (BAW), 128-well diet tray assay; conditions: for pest or weed control at 50 µg/cm2: Table ABC rating, Beet Armyworm; for mortality at 5 µg/cm2: 168 h, diet tray, second instar larvae, five to seven days, read-out: Percent control (or mortality) BAW
Description: as §1, §2
Bioassays on BAW were conducted using a 128-well diet tray assay. one to five second instar BAW larvae were placed in each well (3 mL) of the diet tray that had been previously filled with 1 mL of artificial diet to which 50 μg/cm^2 of the test molecule (dissolved in 50 μL of 90:10 acetone-water mixture) had been applied (to each of eight wells) and then allowed to dry. Trays were covered with a clear self-adhesive cover and held at 25° C., 14:10 light-dark for five to seven days. Percent mortality was recorded for the larvae in each well; activity in the eight wells was then averaged. The results are indicated in the table entitled “Table ABC: Biological Results” (See Table Section).
as §3

[4] = 5 μg/cm^2 (first BAW/CL column pair)
[5] = 5 μg/cm^2 as printed (second BAW/CL column pair)

With `O=C(NCc1ccc(Cl)nc1)c1ccc(/C(F)=C/C(c2cc(Cl)c(Cl)c(Cl)c2)C(F)(F)F)cc1C(F)(F)F` (stereo not shown) [F11, (Z)—N-((6-Chloropyridin-3-yl)methyl)-4-(1,4,4,4-tetrafluoro-3-(3,4,5-trichlorophenyl)but-1-en-1-yl)-2-(trifluoromethyl)benzamide] the pest or weed control at 50 µg/cm2 [1] was 50 to 100%, the YFM [2] was “A (80-100)” and the pest or weed control at 50 µg/cm2 [3] was 50 to 100%.

For `O=C(NC1CC1)c1ccc(/C(F)=C/C(c2cc(Br)c(Cl)c(Br)c2)C(F)(F)F)cc1C(F)(F)F` (stereo not shown) [F12, (Z)—N-cyclopropyl-4-(3-(3,5-dibromo-4-chlorophenyl)-1,4,4,4-tetrafluorobut-1-en-1-yl)-2-(trifluoromethyl)benzamide], the pest or weed control at 50 µg/cm2 [1] was 50 to 100%, the YFM [2] was “A (80-100)” and the pest or weed control at 50 µg/cm2 [3] was 50 to 100%.

`CC(NC(=O)c1ccc(/C(F)=C/C(c2cc(Cl)cc(Cl)c2)C(F)(F)F)cc1C(F)(F)F)C(F)(F)F` (stereo not shown) [F15, 4-((Z)-3-(3,5-Dichlorophenyl)-1,4,4,4-tetrafluorobut-1-en-1-yl)-2-(trifluoromethyl)-N-(1,1,1-trifluoropropan-2-yl)benzamide] was tested, and the pest or weed control at 50 µg/cm2 [1] was 50 to 100%, the YFM [2] was “A (80-100)” and the pest or weed control at 50 µg/cm2 [3] was 50 to 100%.

`C[C@@H](NC(=O)c1ccc(/C(F)=C/C(c2ccc(Cl)c(Cl)c2)C(F)(F)F)cc1C(F)(F)F)C(F)(F)F` (stereo partly drawn) [F16, 4-((Z)-3-(3,4-Dichlorophenyl)-1,4,4,4-tetrafluorobut-1-en-1-yl)-2-(trifluoromethyl)-N—((R)-1,1,1-trifluoropropan-2-yl)benzamide] was tested, and the pest or weed control at 50 µg/cm2 [1] was 50 to 100%, the YFM [2] was “A (80-100)” and the pest or weed control at 50 µg/cm2 [3] was 50 to 100%.

With `O=C(NC1CCC(F)(F)CC1)c1ccc(/C(F)=C/C(c2cc(Cl)c(Br)c(Cl)c2)C(F)(F)F)cc1C(F)(F)F` (stereo not shown) [F21] the pest or weed control at 50 µg/cm2 [1] was 50 to 100%, the YFM [2] was “A (80-100)” and the pest or weed control at 50 µg/cm2 [3] was 50 to 100%.

For `O=C(NC1CC1)c1ccc(/C(F)=C/C(c2cc(Cl)c(Br)c(Cl)c2)C(F)(F)F)cc1C(F)(F)F` (stereo not shown) [F22, (Z)-4-(3-(4-Bromo-3,5-dichlorophenyl)-1,4,4,4-tetrafluorobut-1-en-1-yl)-N-cyclopropyl-2-(trifluoromethyl)benzamide], the pest or weed control at 50 µg/cm2 [1] was 50 to 100%, the YFM [2] was “A (80-100)” and the pest or weed control at 50 µg/cm2 [3] was 50 to 100%.

In the case of `O=C(NC1CC1)c1ccc(/C(F)=C/C(c2cc(Cl)cc(Cl)c2)C(F)(F)F)cc1C(F)(F)F` (stereo not shown) [F23, (Z)—N-Cyclopropyl-4-(3-(3,5-dichlorophenyl)-1,4,4,4-tetrafluorobut-1-en-1-yl)-2-(trifluoromethyl)benzamide], the pest or weed control at 50 µg/cm2 [1] is reported as 50 to 100%, the YFM [2] is reported as “A (80-100)” and the pest or weed control at 50 µg/cm2 [3] is reported as 50 to 100%.

`O=C(NC1CCC(F)(F)CC1)c1ccc(/C(F)=C/C(c2ccc(Cl)c(Cl)c2)C(F)(F)F)cc1C(F)(F)F` (stereo not shown) [F24, (Z)-4-(3-(3,4-Dichlorophenyl)-1,4,4,4-tetrafluorobut-1-en-1-yl)-N-(4,4-difluorocyclohexyl)-2-(trifluoromethyl)benzamide] was tested, and the pest or weed control at 50 µg/cm2 [1] was 50 to 100%, the YFM [2] was “A (80-100)” and the pest or weed control at 50 µg/cm2 [3] was 50 to 100%.

For `O=C(NC1CCC(F)(F)CC1)c1ccc(/C(F)=C/C(c2cc(Cl)cc(Cl)c2)C(F)(F)F)cc1C(F)(F)F` (stereo not shown) [F25, (Z)-4-(3-(3,5-Dichlorophenyl)-1,4,4,4-tetrafluorobut-1-en-1-yl)-N-(4,4-difluorocyclohexyl)-2-(trifluoromethyl)benzamide], the pest or weed control at 50 µg/cm2 [1] was 50 to 100%, the YFM [2] was “A (80-100)” and the pest or weed control at 50 µg/cm2 [3] was 50 to 100%.

In the case of `O=C(Nc1ccc(Cl)nc1)c1ccc(/C(F)=C/C(c2cc(Cl)c(Cl)c(Cl)c2)C(F)(F)F)cc1C(F)(F)F` (stereo not shown) [F26], the pest or weed control at 50 µg/cm2 [1] is reported as 50 to 100%, the YFM [2] is reported as “A (80-100)” and the pest or weed control at 50 µg/cm2 [3] is reported as 50 to 100%.

In the case of `CC(NC(=O)c1ccc(/C(F)=C/C(c2cc(Cl)c(F)c(Cl)c2)C(F)(F)F)cc1C(F)(F)F)C(F)(F)F` (stereo not shown) [F27, (Z)-4-(3-(3,5-Dichloro-4-fluorophenyl)-1,4,4,4-tetrafluorobut-1-en-1-yl)-2-(trifluoromethyl)-N-(1,1,1-trifluoropropan-2-yl)benzamide], the pest or weed control at 50 µg/cm2 [1] is reported as 50 to 100%, the YFM [2] is reported as “A (80-100)” and the pest or weed control at 50 µg/cm2 [3] is reported as 50 to 100%.

With `CC(NC(=O)c1ccc(/C(F)=C/C(c2cc(Br)cc(Br)c2)C(F)(F)F)cc1C(F)(F)F)C(F)(F)F` (stereo not shown) [F28, (Z)-4-(3-(3,5-Dibromophenyl)-1,4,4,4-tetrafluorobut-1-en-1-yl)-2-(trifluoromethyl)-N-(1,1,1-trifluoropropan-2-yl)benzamide] the pest or weed control at 50 µg/cm2 [1] was 50 to 100%, the YFM [2] was “A (80-100)” and the pest or weed control at 50 µg/cm2 [3] was 50 to 100%.

`CN(CC(F)(F)F)C(=O)c1ccc(/C(F)=C/C(c2cc(Cl)c(Cl)c(Cl)c2)C(F)(F)F)cc1C(F)(F)F` (stereo not shown) [F29, (Z)—N-Methyl-4-(1,4,4,4-tetrafluoro-3-(3,4,5-trichlorophenyl)but-1-en-1-yl)-N-(2,2,2-trifluoroethyl)-2-(trifluoromethyl)benzamide] was tested, and the pest or weed control at 50 µg/cm2 [1] was 50 to 100%, the YFM [2] was “A (80-100)” and the pest or weed control at 50 µg/cm2 [3] was 50 to 100%.

With `Cc1cc(C(/C=C(\F)c2ccc(C(=O)NC(C)C(F)(F)F)c(C(F)(F)F)c2)C(F)(F)F)cc(C)c1Cl` (stereo not shown) [F30, 4-((Z)-3-(4-Chloro-3,5-dimethylphenyl)-1,4,4,4-tetrafluorobut-1-en-1-yl)-2-(trifluoromethyl)-N-(1,1,1-trifluoropropan-2-yl)benzamide] the pest or weed control at 50 µg/cm2 [1] was 50 to 100%, the YFM [2] was “A (80-100)” and the pest or weed control at 50 µg/cm2 [3] was 50 to 100%.

For `Cc1cc(C(/C=C(\F)c2ccc(C(=O)NC3CCC(F)(F)CC3)c(C(F)(F)F)c2)C(F)(F)F)cc(C)c1Cl` (stereo not shown) [F31, (Z)-4-(3-(4-Chloro-3,5-dimethylphenyl)-1,4,4,4-tetrafluorobut-1-en-1-yl)-N-(4,4difluorocyclohexyl)-2-(trifluoromethyl)benzamide], the pest or weed control at 50 µg/cm2 [1] was 50 to 100%, the YFM [2] was “A (80-100)” and the pest or weed control at 50 µg/cm2 [3] was 50 to 100%.

With `O=C(NCC(F)(F)F)c1ccc(/C(F)=C/C(c2cc(Cl)c(Cl)c(Cl)c2)C(F)(F)F)cc1` (stereo not shown) [FC1, (Z)-4-(1,4,4,4-tetrafluoro-3-(3,4,5-trichlorophenyl)but-1-en-1-yl)-N-(2,2,2-trifluoroethyl)benzamide] the mortality at 5 µg/cm2 [1, 4] was 100%, the mortality at 5 µg/cm2 [1, 5] was 6% and the mortality at 5 µg/cm2 [3, 4] was 25%. The mortality at 5 µg/cm2 [3, 5] was 0%.

Molecule `O=C(NC1CSC1)c1ccc(/C(F)=C/C(c2cc(Cl)c(Cl)c(Cl)c2)C(F)(F)F)cc1C(F)(F)F` (stereo not shown) [PF2, (Z)-4-(1,4,4,4-Tetrafluoro-3-(3,4,5-trichlorophenyl)but-1-en-1-yl)-N-(thietan-3-yl)-2-(trifluoromethyl)benzamide] has a pest or weed control at 50 µg/cm2 [1] of 50 to 100% and a pest or weed control at 50 µg/cm2 [3] of 50 to 100%.

Work on `O=C(NC1C[S+]([O-])C1)c1ccc(/C(F)=C/C(c2cc(Cl)c(Cl)c(Cl)c2)C(F)(F)F)cc1C(F)(F)F` (stereo not shown) [PF3] yielded a pest or weed control at 50 µg/cm2 [1] of 50 to 100% and a pest or weed control at 50 µg/cm2 [3] of 50 to 100%.

`O=C(NC1CS(=O)(=O)C1)c1ccc(/C(F)=C/C(c2cc(Cl)c(Cl)c(Cl)c2)C(F)(F)F)cc1C(F)(F)F` (stereo not shown) [PF4, (Z)—N-(1,1-Dioxidothietan-3-yl)-4-(1,4,4,4-tetrafluoro-3-(3,4,5-trichlorophenyl)but-1-en-1-yl)-2-(trifluoromethyl)benzamide] gave a pest or weed control at 50 µg/cm2 [1] of 50 to 100% and a pest or weed control at 50 µg/cm2 [3] of 50 to 100%.
